Test results taken from ChEMBL document CHEMBL1201862, “PubChem BioAssay data set” (2004).
Values joined by “and” are separate entries in the source; they are usually repeats but may differ in a detail not shown here. Equal values may be shown once.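 Method: 48-hour compound exposure of cells in 96-well plates, five concentrations, linear interpolation of endpoints. GI50 marks 50% less growth.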 Active and inactive are the calls of the source. Rule as the data show it: active = GI50 up to about 1.1 µM and inactive = higher.

What was measured:
Assay in all cases: NCI anticancer screen, dose series, 48 h
[1] = system: MOLT-4
[2] = system: SK-OV-3
[3] = system: RPMI-8226
[4] = system: M19-MEL
[5] = system: NCI-H23
[6] = system: U-251
[7] = system: IGROV-1
[8] = system: DLD-1
[9] = system: SK-MEL-2
[10] = system: Malme-3M
[11] = system: SNB-78
[12] = system: XF498
[13] = system: LOX IMVI
[14] = system: CCRF-CEM
[15] = system: K562
[16] = system: HT-29
[17] = system: DMS-273
[18] = system: EKVX
[19] = system: COLO 205
[20] = system: SNB-19
[21] = system: UO-31
[22] = system: SW-620
[23] = system: 786-0
[24] = system: CAKI-1
[25] = system: SK-MEL-28
[26] = system: TK-10
[27] = system: HOP-92
[28] = system: SN12C
[29] = system: HCC 2998
[30] = system: UACC-62
[31] = system: ACHN
[32] = system: A549
[33] = system: SF-539
[34] = system: SK-MEL-5
[35] = system: KM12
[36] = system: SNB-75
[37] = system: NCI-H460
[38] = system: OVCAR-8
[39] = system: M14
[40] = system: HOP-18
[41] = system: SR
[42] = system: HL-60
[43] = system: NCI-H522
[44] = system: LXFL 529
[45] = system: HCT-15
[46] = system: HOP-62
[47] = system: OVCAR-4
[48] = system: SF-295
[49] = system: SF-268
[50] = system: OVCAR-5
[51] = system: OVCAR-3
[52] = system: RXF 393
[53] = system: HCT-116
[54] = system: DMS-114
[55] = system: NCI-H226
[56] = system: UACC-257
[57] = system: KM-20L2
[58] = system: A498

COc1ccc(-c2cc(O)c3cc4c(cc3n2)OCO4)c(OC)c1
GI50 [1]: 30.2 µM (inactive)
GI50 [2]: 87.3 µM (inactive)
GI50 [3]: 28.3 µM (inactive)
GI50 [4]: 43 µM (inactive)
GI50 [5]: 70.3 µM (inactive)
GI50 [6]: 59.4 µM (inactive)
GI50 [7]: > 100 µM (inactive)
GI50 [8]: 36.8 µM (inactive)
GI50 [9]: 55.1 µM (inactive)
GI50 [10]: 25.2 µM (inactive)
GI50 [11]: 54.7 µM (inactive)
GI50 [12]: 30.3 µM (inactive)
GI50 [13]: 47.9 µM (inactive)
GI50 [14]: 34.4 µM (inactive)
GI50 [15]: 32 µM (inactive)
GI50 [16]: 43 µM (inactive)
GI50 [17]: 33.7 µM (inactive)
GI50 [18]: 82.4 µM (inactive)
GI50 [19]: 46.2 µM (inactive)
GI50 [20]: 67.6 µM (inactive)
GI50 [21]: 57.3 µM (inactive)
GI50 [22]: 47.3 µM (inactive)
GI50 [23]: > 100 µM (inactive)
GI50 [24]: > 100 µM (inactive)
GI50 [25]: 32.9 µM (inactive)
GI50 [26]: > 100 µM (inactive)
GI50 [27]: 82 µM (inactive)
GI50 [28]: 59.6 µM (inactive)
GI50 [29]: 50.7 µM (inactive)
GI50 [30]: 28.3 µM (inactive)
GI50 [31]: 37.1 µM (inactive)
GI50 [32]: 41.8 µM (inactive)
GI50 [33]: 51.3 µM (inactive)
GI50 [34]: 26.5 µM (inactive)
GI50 [35]: 41.6 µM (inactive)
GI50 [36]: 4.4 µM (inactive)
GI50 [37]: 40.2 µM (inactive)
GI50 [38]: 96.6 µM (inactive)
GI50 [39]: 33.5 µM (inactive)
GI50 [40]: 56.4 µM (inactive)
GI50 [41]: 22.1 µM (inactive)
GI50 [42]: 20 µM (inactive)
GI50 [43]: 46.9 µM (inactive)
GI50 [44]: 45.7 µM (inactive)
GI50 [45]: 38.9 µM
GI50 [46]: 73.1 µM (inactive)
GI50 [47]: 71.1 µM (inactive)

O=C(O)CCCCCCC[C@H]1S[C@H]1CCCCCCO
GI50 [1]: > 100 µM (inactive)
GI50 [2]: > 100 µM (inactive)
GI50 [3]: > 100 µM (inactive)
GI50 [4]: > 100 µM (inactive)
GI50 [5]: > 100 µM (inactive)
GI50 [6]: > 100 µM (inactive)
GI50 [7]: > 100 µM (inactive)
GI50 [8]: > 100 µM (inactive)
GI50 [9]: > 100 µM (inactive)
GI50 [10]: > 100 µM (inactive)
GI50 [11]: > 100 µM (inactive)
GI50 [12]: > 100 µM (inactive)
GI50 [15]: > 100 µM (inactive)
GI50 [16]: > 100 µM (inactive)
GI50 [18]: > 100 µM (inactive)
GI50 [19]: > 100 µM (inactive)
GI50 [20]: > 100 µM (inactive)
GI50 [21]: > 100 µM (inactive)
GI50 [23]: > 100 µM (inactive)
GI50 [48]: > 100 µM (inactive)
GI50 [49]: > 100 µM (inactive)
GI50 [24]: > 100 µM (inactive)
GI50 [25]: > 100 µM (inactive)
GI50 [26]: > 100 µM (inactive)
GI50 [27]: < 0.01 µM (active)
GI50 [29]: > 100 µM (inactive)
GI50 [30]: > 100 µM (inactive)
GI50 [33]: > 100 µM (inactive)
GI50 [34]: > 100 µM (inactive)
GI50 [35]: > 100 µM (inactive)
GI50 [50]: > 100 µM (inactive)
GI50 [38]: > 100 µM (inactive)
GI50 [51]: > 100 µM (inactive)
GI50 [39]: > 100 µM (inactive)
GI50 [52]: > 100 µM (inactive)
GI50 [40]: > 100 µM (inactive)
GI50 [41]: > 100 µM (inactive)
GI50 [53]: > 100 µM (inactive)
GI50 [42]: > 100 µM (inactive)
GI50 [45]: > 100 µM
GI50 [46]: > 100 µM (inactive)
GI50 [47]: > 100 µM (inactive)
GI50 [54]: > 100 µM (inactive)

COc1c(O)c2c3c(c(C)cc(O)c3c1O)C(=O)C(O)(C(C)(C)C(C)=O)C2=O (stereo not drawn)
GI50 [1]: > 100 µM (inactive)
GI50 [2]: > 100 µM (inactive)
GI50 [3]: > 100 µM (inactive) and 82.2 µM (inactive)
GI50 [4]: 14.7 µM (inactive) and 18.4 µM (inactive)
GI50 [5]: > 100 µM (inactive)
GI50 [6]: > 100 µM (inactive)
GI50 [7]: > 100 µM (inactive)
GI50 [8]: > 100 µM (inactive)
GI50 [9]: > 100 µM (inactive)
GI50 [10]: > 100 µM (inactive)
GI50 [11]: 71.8 µM (inactive)
GI50 [12]: > 100 µM (inactive)
GI50 [14]: 61.9 µM (inactive) and 57 µM (inactive)
GI50 [16]: > 100 µM (inactive)
GI50 [17]: > 100 µM (inactive)
GI50 [19]: > 100 µM (inactive)
GI50 [20]: > 100 µM (inactive)
GI50 [21]: > 100 µM (inactive)
GI50 [22]: > 100 µM (inactive)
GI50 [23]: > 100 µM (inactive)
GI50 [49]: > 100 µM (inactive)
GI50 [24]: > 100 µM (inactive)
GI50 [25]: > 100 µM (inactive)
GI50 [26]: > 100 µM (inactive)
GI50 [27]: > 100 µM (inactive)
GI50 [28]: > 100 µM (inactive) and 82.4 µM (inactive)
GI50 [31]: > 100 µM (inactive)
GI50 [32]: > 100 µM (inactive)
GI50 [55]: 19.3 µM (inactive)
GI50 [56]: > 100 µM (inactive)
GI50 [33]: > 100 µM (inactive)
GI50 [34]: 77.1 µM (inactive)
GI50 [35]: > 100 µM (inactive)
GI50 [36]: > 100 µM (inactive) and 61 µM (inactive)
GI50 [50]: > 100 µM (inactive)
GI50 [37]: > 100 µM (inactive)
GI50 [38]: > 100 µM (inactive)
GI50 [51]: > 100 µM (inactive)
GI50 [39]: > 100 µM (inactive)
GI50 [52]: > 100 µM (inactive)
GI50 [40]: > 100 µM (inactive)
GI50 [53]: > 100 µM (inactive)
GI50 [42]: 51.4 µM (inactive) and 50.9 µM (inactive)
GI50 [57]: > 100 µM (inactive)
GI50 [44]: > 100 µM (inactive)
GI50 [45]: > 100 µM
GI50 [46]: > 100 µM (inactive)
GI50 [47]: > 100 µM (inactive)

CS(=O)(=O)N/N=C/CN1C(=O)c2ccccc2C1=O
GI50 [1]: > 100 µM (inactive)
GI50 [2]: > 100 µM (inactive)
GI50 [3]: > 100 µM (inactive)
GI50 [58]: > 100 µM (inactive)
GI50 [4]: > 100 µM (inactive)
GI50 [5]: > 100 µM (inactive)
GI50 [6]: > 100 µM (inactive)
GI50 [7]: > 100 µM (inactive)
GI50 [8]: > 100 µM (inactive)
GI50 [9]: > 100 µM (inactive)
GI50 [10]: > 100 µM (inactive)
GI50 [11]: > 100 µM (inactive)
GI50 [12]: > 100 µM (inactive)
GI50 [14]: > 100 µM (inactive)
GI50 [15]: > 100 µM (inactive)
GI50 [16]: > 100 µM (inactive)
GI50 [17]: > 100 µM (inactive)
GI50 [18]: > 100 µM (inactive)
GI50 [19]: > 100 µM (inactive)
GI50 [20]: > 100 µM (inactive)
GI50 [21]: > 100 µM (inactive)
GI50 [22]: > 100 µM (inactive)
GI50 [23]: > 100 µM (inactive)
GI50 [48]: > 100 µM (inactive)
GI50 [49]: > 100 µM (inactive)
GI50 [24]: > 100 µM (inactive)
GI50 [25]: > 100 µM (inactive)
GI50 [26]: > 100 µM (inactive)
GI50 [28]: > 100 µM (inactive)
GI50 [29]: > 100 µM (inactive)
GI50 [30]: > 100 µM (inactive)
GI50 [31]: > 100 µM (inactive)
GI50 [32]: > 100 µM (inactive)
GI50 [55]: > 100 µM (inactive)
GI50 [56]: > 100 µM (inactive)
GI50 [33]: > 100 µM (inactive)
GI50 [34]: > 100 µM (inactive)
GI50 [35]: > 100 µM (inactive)
GI50 [36]: > 100 µM (inactive)
GI50 [50]: > 100 µM (inactive)
GI50 [37]: > 100 µM (inactive)
GI50 [38]: > 100 µM (inactive)
GI50 [51]: > 100 µM (inactive)
GI50 [39]: > 100 µM (inactive)
GI50 [40]: > 100 µM (inactive)
GI50 [41]: > 100 µM (inactive)
GI50 [53]: > 100 µM (inactive)
GI50 [42]: > 100 µM (inactive)
GI50 [57]: > 100 µM (inactive)
GI50 [43]: > 100 µM (inactive)
GI50 [44]: > 100 µM (inactive)
GI50 [45]: > 100 µM
GI50 [46]: > 100 µM (inactive)
GI50 [47]: > 100 µM (inactive)
GI50 [54]: > 100 µM (inactive)
